These are literature values, as cited in US8222270B2 (Medicis Pharmaceutical Corporation, priority 2008, dated 2012).

The data set relates to actinic keratoses. The note with it: cited from earlier work.

For `O=c1[nH]cc(F)c(=O)[nH]1` [Formulation 5-FU, 5-fluorouracil], where the note is “12-month follow-up”, the “Sustained clearance of the total treatment field, patients” value was 33% and the “Sustained clearance rate of initially cleared individual lesions” value was 54%. In addition, under “in vivo”, the Histological clearance rate is given as 67% and the “Initial clinical clearance, patients” value is reported as 96%.
